What all share (format): in vivo
For assay [1], the system named is Phaedon cochleariae. The assay can be described thus: Phaedon cochleariae spray test (PHAECO), Chinese cabbage leaf discs. The conditions noted are these: Phaedon cochleariae, foliar, 168 h. How it is done:
(§1) [table] To produce a suitable active ingredient formulation, 1 part by weight of active ingredient is dissolved with the specified parts by weight of solvent and made up to the desired concentration with water containing an emulsifier concentration of 1000 ppm. To produce further test concentrations, the formulation is diluted with emulsifier-containing water. Discs of Chinese cabbage leaves (Brassica pekinensis) are sprayed with an active ingredient formulation of the desired concentration and, after drying, populated with larvae of the mustard beetle (Phaedon cochleariae). After 7 days, the efficacy in % is determined. 100% means that all the beetle larvae have been killed; 0% means that no beetle larvae have been killed. [table] To produce an appropriate active ingredient formulation, 1 part by weight of active ingredient is dissolved with the stated parts by weight of solvent and made up with water containing an emulsifier concentration of 1000 ppm until the desired concentration is attained. For production of further test concentrations, the mixture is diluted with emulsifier-containing water. Discs of chinese cabbage leaves (Brassica pekinensis) are sprayed with an active ingredient formulation of the desired concentration and, after drying, populated with larvae of the mustard beetle (Phaedon cochleariae). After the desired time, the efficacy in % is determined. 100% means that all beetle larvae have been killed; 0% means that no beetle larvae have been killed.

A further assay relates to Aphis gossypii. Briefly: Aphis gossypii spray test (APHIGO), cotton plants. The conditions noted are these: Aphis gossypii, 144 h, 6 dat, read-out: % efficacy. The procedure: (§2) [table] To produce an appropriate active ingredient formulation, 1 part by weight of active ingredient is dissolved with the specified parts by weight of solvent and made up with water containing an emulsifier concentration of 1000 ppm until the desired concentration is attained. To produce further test concentrations, the mixture is diluted with emulsifier-containing water. If addition of ammonium salts or/and penetrants is required, these are each added to the preparation solution in a concentration of 1000 ppm. Cotton plants (Gossypium hirsutum) severely infested by the cotton aphid (Aphis gossypii) are sprayed with an active ingredient formulation of the desired concentration. After the desired time, the kill in % is determined. 100% means that all aphids have been killed; 0% means that no aphids have been killed.

Assay [2] relates to Myzus persicae. Briefly: Myzus persicae drench test (MYZUPE D), savoy cabbage plants. As to conditions: soil, 240 h, 10 dat, read-out: % efficacy. The procedure: [table] To produce an appropriate active ingredient formulation, 1 part by weight of active ingredient is mixed with the specified amounts of solvent and emulsifier and the concentrate is diluted to the desired concentration with water, it being necessary to take into account the volume of soil into which drenching is effected. It should be ensured that a concentration of 40 ppm of emulsifier in the soil is not exceeded. For production of further test concentrations, the mixture is diluted with water. Savoy cabbage plants (Brassica oleracea) in soil pots, infested by all stages of the green peach aphid (Myzus persicae), are drenched with an active ingredient formulation of the desired concentration. After the desired time, the efficacy in % is determined. 100% means that all the aphids have been killed; 0% means that no aphids have been killed.

The test system of the next assay is Nezara viridula. Briefly: Nezara viridula spray test (NEZARA / NEZAVI). As to conditions: Nezara viridula, 96 h, 4 dat, read-out: % efficacy. How it is done: as §2, with “ppm. Barley” for “ppm. Cotton”, “plants (Hordeum vulgare) infected with larvae of” for “plants (Gossypium hirsutum) severely infested by”, “the southern green shield bug (Nezara viridula)” for “the cotton aphid (Aphis gossypii)”, “the efficacy” for “the kill”, “all bugs” for “all aphids”, “no bugs” for “no aphids”

Assay [3] deals with Myzus persicae. The assay can be described thus: Myzus persicae spray test (MYZUPE), Chinese cabbage leaf discs. As to conditions: Myzus persicae, foliar, 120 h, MYZUPE, 4 g/ha, 5 dat; read-out: % efficacy. The procedure: as §1, with “pekinensis) infested by all stages of the green peach aphid (Myzus persicae)” for “pekinensis)”, “concentration.” for “concentration and, after drying, populated with larvae of the mustard beetle (Phaedon cochleariae).”, “5” for “7”, “aphids” for “beetle larvae”

A further assay has as its system Tetranychus urticae. The assay can be described thus: Tetranychus urticae spray test, OP-resistant (TETRUR). As to conditions: Tetranychus urticae, 144 h; TETRUR, 100 g/ha, 6 dat; read-out: % efficacy. The procedure: [table] To produce a suitable active ingredient formulation, 1 part by weight of active ingredient is dissolved with the specified parts by weight of solvent and made up to the desired concentration with water containing an emulsifier concentration of 1000 ppm. To produce further test concentrations, the formulation is diluted with emulsifier-containing water. Discs of bean leaves (Phaseolus vulgaris) infested with all stages of the greenhouse red spider mite (Tetranychus urticae) are sprayed with an active ingredient formulation of the desired concentration. After 6 days, the efficacy in % is determined. 100% means that all the spider mites have been killed; 0% means that no spider mites have been killed.

Assay [4] has as its system Phaedon cochleariae. Briefly: Phaedon cochleariae spray test (PHAECO S), cabbage leaves. As to conditions: Phaedon cochleariae, 168 h, 20 ppm, 7 dat, read-out: % efficacy. How it is done: as §2, with “Cabbage leaves (Brassica oleracea)” for “Cotton plants (Gossypium hirsutum) severely infested by the cotton aphid (Aphis gossypii)”, “concentration and populated with larvae of the mustard beetle (Phaedon cochleariae).” for “concentration.”, “beetle larvae” for “aphids”

The next assay concerns Nilaparvata lugens. The assay can be described thus: Nilaparvata lugens spray test (NILALU). The conditions noted are these: Nilaparvata lugens, 96 h, 4 g/ha, 4 dat, read-out: % efficacy. The procedure:
as §2, with “ppm. Rice” for “ppm. Cotton”, “plants (Oryza sativa)” for “plants (Gossypium hirsutum) severely infested by the cotton aphid (Aphis gossypii)”, “desired concentration and then populated with larvae of the brown planthopper (Nilaparvata lugens).” for “desired concentration.”, “the efficacy” for “the kill”, “all planthoppers” for “all aphids”, “no planthoppers” for “no aphids”

Assay [5] concerns Myzus persicae. Briefly: Myzus persicae spray test (MYZUPE S), bell pepper plants. As to conditions: 144 h, 6 dat, read-out: % efficacy. The procedure: [table] To produce an appropriate active ingredient formulation, 1 part by weight of active ingredient is dissolved with the specified parts by weight of solvent and made up with water containing an emulsifier concentration of 1000 ppm until the desired concentration is attained. To produce further test concentrations, the mixture is diluted with emulsifier-containing water. If addition of ammonium salts or/and penetrants is required, these are each added to the preparation solution in a concentration of 1000 ppm. Bell pepper plants (Capsicum annuum) severely infested by the green peach aphid (Myzus persicae) are treated by spraying with the active ingredient formulation in the desired concentration. After the desired time, the kill in % is determined. 100% means that all the animals have been killed; 0% means that no animals have been killed.

Take `CNC(=O)Nc1ccc(S(C)(=O)=O)c(-c2nc3cc(C(F)(F)F)nnc3n2C)n1` [reference compound]: the pest or weed control at 100 g/ha in the assay with Phaedon cochleariae [1] (100 g/ha, 7 days (7 dat), read-out: efficacy) is 33%. Further, the Emax at 20 g/ha with Phaedon cochleariae [1] (PHAECO, 20 g/ha, 7 dat, read-out: % efficacy) worked out at 0%; with Nezara viridula (20 g/ha) it was 0%. Moreover, the Emax at 20 ppm with Aphis gossypii (20 ppm) worked out at 0%. Also, in the assay with Myzus persicae [2] (0.8 ppm), the Emax at 0.8 ppm is 0%. Also, the Emax at 4 ppm in the assay on Myzus persicae [2] (4 ppm) came out at 0%.
For the compound `CCS(=O)(=O)c1ccc(NC(=O)N(C)C)nc1-c1nc2cc(C(F)(F)F)nnc2n1C` [reference compound], the Emax at 4 g/ha with Myzus persicae [3], in the assay with Nilaparvata lugens and with Nezara viridula was 0% each time. Besides, the Emax at 100 g/ha in the assay with Tetranychus urticae is 0%. Also, the Emax at 4 ppm with Aphis gossypii (4 ppm) turned out to be 15%. The Emax at 20 ppm in the assay on Phaedon cochleariae [4] turned out to be 20%.
Consider `CCS(=O)(=O)c1ccc(N(C)C(=O)NC)nc1-c1nc2cc(C(F)(F)F)nnc2n1C` [reference compound], for which the Emax at 4 g/ha was 0% in the assay on Myzus persicae [3]; 0% with Phaedon cochleariae [1] (PHAECO, 4 g/ha, 7 dat, read-out: % efficacy); 0% with Nezara viridula. In the assay with Phaedon cochleariae [1] (PHAECO, 20 g/ha, 7 dat), the percent efficacy (larval mortality) at a fixed application rate at 20 g/ha was found to be 33%. Further, the Emax at 100 g/ha in the assay on Tetranychus urticae stood at 0%. Besides, the Emax at 0.16 ppm was found to be 20% in the assay with Myzus persicae [5] (0.16 ppm) and 0% in the assay with Myzus persicae [2] (0.16 ppm). Further, the Emax at 0.8 ppm in the assay on Myzus persicae [5] (0.8 ppm) worked out at 65%.

These data come from patent publication US11089783B2, “2-(het)aryl-substituted fused heterocycle derivatives as pesticides” (Bayer Aktiengesellschaft, priority 2017, dated 2021).
